Measured values published in patent US8034810B2, “Arylsulfonamido-substituted hydroxamic acid derivatives” (Novartis AG, priority 1999, dated 2011).

Tests used:
[1] = system: EGFP transfected HT1080 cells; experiment: Metastasis model with EGFP transfected HT1080 cells, lung fluorescence in nude mice; format: in vivo; conditions: tumor cells i.v., p.o. 60 mg/kg twice a day, lungs on day 17
Description: EGFP transfected HT1080: Nude mice were injected in the tail vein a suspension of tumor cells [2×10^6 cells/0.1 ml of PBS (phosphate buffered saline)]. Animals were dosed with compounds p.o. at −1 hr and +5 hrs relative to the time of the cell injection at the first day (day 0). After that the animals were dosed twice a day, firstly at 9-10:30 a.m. and secondly at 5:30-7:00 p.m. Compounds were administered as a suspension in 1% carboxymethyl cellulose (Wako, Japan) at a dose of 60 mg/kg twice a day. The vehicle alone was administered to the control group. On day 17, the lungs were removed from mice after sacrificing the animals. The removed lung tissues were divided into pieces of approximately 2-3 mm in diameter and then ca. 100 mg of tissues were suspended in 0.2 ml PBS in the microcentrifuge tubes followed by gentle homogenization and centrifugation. […] The fluorescence intensity was determined by using fluorescence plate reader (Cytoflour II) at the excitation and emission wavelength of 485 and 530 nm, respectively. The obtained fluorescence was normalized per lung using the wet lung weight. In this test a decrease in the fluorescence of 74% compared to the vehicle alone was determined for the compound of Example 68.

[2] = system: B16-F10 melanoma cells; experiment: B16-F10 melanoma experimental metastasis model, lung tumor nodules; format: in vivo, BDF1 mice; conditions: mice, tumor cells i.v.; p.o. 120 mg/kg/dosing; lungs on day 14
Description: The B16-F10 melanoma experimental metastasis model was studied following the method of Fidler. Cells were harvested by trypsinization and washed once with serum-containing medium and three times with cold PBS and then kept on ice. Mice were injected in the tail vein with a suspension of tumor cells (2×10^5 cells/0.1 ml of PBS). Animals were dosed with compounds p.o. at −1 hr, +5 hrs, 23 hrs and 29 hrs relative to the time of the cell injection at the first two days (day 0, 1). After that the animals were dosed once a day in the morning. Compounds were administered as a suspension in 1% carboxymethyl cellulose (Wako, Japan) at a dose of 120 mg/kg/dosing. Vehicle alone was administered to the control group. On day 14, the lung of the mice were removed after sacrificing the animals and the numbers of the tumor nodules were counted manually after fixing with Bouin's solution (2% picric acid in destilled water:10% formaldehyde neutral buffer solution:acetic acid=15:5:1). In this test a decrease in the number of tumor nodules of 47% compared to the vehicle alone was determined for the compound of Example 68.

COc1ccc(CN(CC(=O)NO)S(=O)(=O)c2ccc(OCCCCl)cc2)cc1 [Example 68, 2-{[4-(3-chloro-propoxy)-benzenesulfonyl]-(4-methoxy-benzyl)amino}-N-hydroxy-acetamide]
decrease in the fluorescence compared to the vehicle alone [1]: 74%
decrease in the number of tumor nodules compared to the vehicle alone [2]: 47%
